Laboratory results as given in patent US11820822B2, “Methods for sensitizing cancer cells to T cell-mediated killing by modulating molecular pathways” (DANA-FARBER CANCER INSTITUTE, INC., priority 2017, dated 2023).

B1: IFNγ: cytokine used to stimulate B16F10 cells (protein, UniProt P01580 23-155, looked up)
Interferon gamma: HGTVIESLESLNNYFNSSGIDVEEKSLFLDIWRNWQKDGDMKILQSQIISFYLRLFEVLKDNQAISNNISVIESHLITTFFSNSKAKKDAFMSIAKFEVNNPQVQRQAFNELIRVVHQLLPESSLRKRKRSRC

Key:
Format in all cases: cell-based, mouse
[1] = tested on: B16F10-Cas9 cells pulsed with SIINFEKL peptide, co-cultured with OT-I T cells; experiment: Genome-scale CRISPR-Cas9 screen, selection with OT-I T cells; details: Table 3; B16F10-Cas9 cells pulsed with SIINFEKL, co-cultured with OT-I T cells 1:1 for one day; negative = depleted, positive = enriched
[2] = tested on: B16F10-Cas9 cells co-cultured with Pmel-1 T cells; experiment: Genome-scale CRISPR-Cas9 screen, selection with Pmel-1 T cells; details: Table 3; B16F10-Cas9 cells pre-treated with IFNγ, co-cultured with Pmel-1 T cells 1:1 for three days; negative = depleted, positive = enriched
[3] = tested on: Otulin, Dusp6 and Nf1 knockout B16F10 cells; experiment: Doxorubicin-induced cell death; details: Dusp6 or Nf1 inactivated B16F10-Cas9 cells vs control cells, 24 or 48 hours
Protocol: The knockout cell lines (GFP+) were mixed with control cells (GFP−) at 1:1 ratio. The mixture of cells was then seeded at 200,000 cells/well in a 6-well plate. Eighteen hours after seeding, different doses of doxorubicin (Sigma-Aldrich, D1515) as indicated in FIG. 11 were added to the cell culture (triplicate wells per condition). After 24 or 48 hours, cells were harvested and stained with DAPI (5 μg/ml) for 5 minutes in PBS with 2% FBS at room temperature. The ratio of GFP+/GFP−was determined by FACS (gated on DAPI− for live cells).

B16F10-Cas9 cells = experiment: PD-L1 expression by FACS after IFNγ stimulation (Cas9 editing efficiency of B16F10-Cas9 clones); details: B16F10 tumor cells, IFNγ 10 ng/ml for 24 hours
Protocol: To acquire clones with high Cas9 activity, B16F10-Cas9 cells were single-cell sorted into 96-well plates. Multiple were infected with lentivirus driving expression of a gRNA specific for Cd274 and mCherry. Ten days post-infection, each individual clone was stimulated with 10 ng/ml of IFNγ for 24 hours and the expression of PD-L1 was determined by fluorescence-activated cells sorting (FACS) using an anti-Cd274 antibody (clone 10F.9G2, BioLegend, #124311). Cas9 efficiency was determined by the percentage of PD-L1 negative cells in the transduced (mCherry+) population.

Molecule	OT1 (sgRNA Log(2) fold change, OT-I selection versus control T cells) [1]	Pmel+ (sgRNA Log(2) fold change, Pmel-1 selection versus control T cells) [2]	sensitivity to doxorubicin induced cell death [3]	PD-L1 expression (B16F10-Cas9 cells)
TCACTGCGTACGCGTCACTG (chemistry not fully specified)	-3.44	0.81	–	–
TTACTGAGGCTCGATTGGGA (chemistry not fully specified)	-3.59	0.41	–	–
GTTTCTGGCATCCAAAGTAG (chemistry not fully specified)	-2.50	0.80	–	–
GGACGAGAGCAACATAAACA (chemistry not fully specified)	-0.03	2.15	–	–
AACTTCAGTAGCGGGCGACG (chemistry not fully specified)	-2.23	0.00	–	–
AAACATATAGTGTACCTCTA (chemistry not fully specified)	2.36	10.21	–	–
AGCGTATAATCTTCGATCAG (chemistry not fully specified)	-2.46	1.35	–	–
ACAGATACGGAGTGTCCCGT (chemistry not fully specified)	2.85	1.90	–	–
AAAAATTCAACGTTGAAACA (chemistry not fully specified)	-1.37	-3.43	–	–
GAATCCTCCAGAAGGAATCG (chemistry not fully specified)	0.26	2.99	–	–
TAAAAGTCCCTCCCTCAAAG (chemistry not fully specified)	-2.56	0.00	–	–
CCTCCGACATTCCGTAACTG (chemistry not fully specified)	-2.32	-1.90	–	–
TCATCTTCGGAGGGCTCAAG (chemistry not fully specified)	0.18	2.75	–	–
GGTTCGCTTCTTCCAAACCA (chemistry not fully specified)	-2.41	-2.08	–	–
GGACACCAAGTTATTCCGTG (chemistry not fully specified)	-3.20	-2.89	–	–
ATGTTGCCATCGTCACTGCA (chemistry not fully specified)	0.41	3.04	–	–
CAGTGTCACAACCCACCGGA (chemistry not fully specified)	-2.75	0.23	–	–
ATGAGGTACAGCAGAAAGGT (chemistry not fully specified)	-2.05	0.90	–	–
GCACTGCTCTCATAACCCAT (chemistry not fully specified)	-0.77	3.01	–	–
GTCTCTAGCAAAGTCCACGC (chemistry not fully specified)	-0.40	3.25	–	–
ACACAACGCTAAGACAGTCG (chemistry not fully specified)	-3.60	-0.22	–	–

Molecule	OT1 (sgRNA Log(2) fold change, OT-I selection versus control T cells) [1]	Pmel+ (sgRNA Log(2) fold change, Pmel-1 selection versus control T cells) [2]	sensitivity to doxorubicin induced cell death [3]	PD-L1 expression (B16F10-Cas9 cells)
GCAAATGTAGAAATGTCGTG (chemistry not fully specified)	-2.34	-0.65	–	–
CAAGAGCCAGACCTTGGATG (chemistry not fully specified)	-2.86	0.41	–	–
ACTAATGGACTCGCACACGT (chemistry not fully specified)	-0.42	2.09	–	–
GAAGTAAAGGGATTTAACAG (chemistry not fully specified)	-2.59	-0.84	–	–
GATATGCTACAGGACCTTCG (chemistry not fully specified)	-2.83	0.44	–	–
CATGCAATACATGCCAAAGG (chemistry not fully specified)	-2.39	-0.22	–	–
ACGACGAGGAGTTCGAATAC (chemistry not fully specified)	-2.76	-0.86	–	–
TCGGCTTCCCATTCTCCGGT (chemistry not fully specified)	5.48	4.33	–	–
GCTGTTACTCCAGAGACACA (chemistry not fully specified)	-0.23	-2.27	–	–
TGTGATGTTAGATAAACAGA (chemistry not fully specified)	1.50	7.91	–	–
COc1cccc2c1C(=O)c1c(O)c3c(c(O)c1C2=O)C[C@@](O)(C(=O)CO)C[C@@H]3O[C@H]1C[C@H](N)[C@H](O)[C@H](C)O1 [doxorubicin]	–	–	did not render them more sensitive	–
CAAAGTCTGCTGTCCGACCT (chemistry not fully specified)	0.41	2.57	–	–
TTTACAATCCTCCAAAGTCG (chemistry not fully specified)	-3.13	-0.68	–	–
CCAAACACCCCACATATGGT (chemistry not fully specified)	-2.24	-0.79	–	–
ATACACAACTATGATGCCAT (chemistry not fully specified)	-1.48	5.64	–	–
TGTGAATGCTATGACGAGCT (chemistry not fully specified)	-2.59	0.02	–	–
TATGTGGAGCATAACCGGAG (chemistry not fully specified)	2.95	3.80	–	–
TTGTCCGCGTTACTTCCCTG (chemistry not fully specified)	-2.50	0.07	–	–
CACACCCTTACTGCCCGTCG (chemistry not fully specified)	-2.48	-1.34	–	–
B1	–	–	–	strong upregulation
